Columns and labels:
Assay type in all cases: cell-based
[1] = test system: Enterococcus faecalis (EFA); assay: MIC, two-fold agar dilution (CLSI), clinical isolates
Method in brief: (§1)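 Susceptibility was tested using CLSI two-fold agar dilution against the strains examined.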

[2] = test system: Escherichia coli (including ESBLs, non-ESBLs); assay: as above
Method in brief: as §1

[3] = test system: Moraxella catarrhalis (BCA); assay: as above
Method in brief: as §1

[4] = test system: methicillin-sensitive Staphylococcus epidermidis (MSSE); assay: as above
Method in brief: as §1

[5] = test system: methicillin-sensitive Staphylococcus aureus (MSSA); assay: as above
Method in brief: as §1

[6] = test system: methicillin-resistant Staphylococcus aureus (MRSA); assay: as above
Method in brief: as §1

[7] = test system: Streptococcus pneoumoniae (SPN); assay: as above
Method in brief: as §1

[8] = test system: Enterococcus faecium (EFM); assay: as above
Method in brief: as §1

[9] = test system: methicillin-resistant Staphylococcus epidermidis (MRSE); assay: as above
Method in brief: as §1

[10] = test system: A549 lung cancer cell line; assay: CCK-8 proliferation inhibition; details: concentration of 30 μM
Method in brief: (§2)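 Plating at 2000 cells/well, then incubation overnight at 37° C. Next, a range of compound concentrations for 72 hours (control 1‰ DMSO). Finally, medium decanted and CCK-8 diluted 1:10 added.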

[11] = test system: BEL-7402 liver cancer cell line; assay: CCK-8 proliferation inhibition; details: concentration of 30 μM, 72 hours, 30 µM
Method in brief: as §2

[12] = test system: MGC-803 gastric cancer cell line; assay: CCK-8 proliferation inhibition; details: concentration of 30 μM
Method in brief: as §2

[13] = test system: HCT-116 colorectal cancer cell line; assay: CCK-8 proliferation inhibition; details: concentration of 30 μM, 72 hours, CCK-8
Method in brief: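 Growth inhibition is read by CCK-8 (1:10 dilution) after 72 h of compound exposure. HCT-116 cells grow in McCoy's 5A containing 10% newborn bovine serum at 2000 cells/well, with 1‰ DMSO as vehicle control.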

SMILES: O=C(C[C@@H](CC1CCCC1)C(=O)N1CC2(CC2)C[C@H]1C(=O)Nc1ccncn1)NO [Example 63]
- Anti-bacterial activity (MIC), strain EFA 15-1 ([1]; clinical isolate EFA 15-1): > 32 µg/mL
- Anti-bacterial activity (MIC), strain EFA 15-2 ([1]; clinical isolate EFA 15-2): > 32 µg/mL
- Anti-bacterial activity (MIC), strain EFA 15-3 ([1]; clinical isolate EFA 15-3): > 32 µg/mL
- Anti-bacterial activity (MIC), strain EFA 15-4 ([1]; clinical isolate EFA 15-4): > 32 µg/mL
- Anti-bacterial activity (MIC), strain EFA 15-5 ([1]; clinical isolate EFA 15-5): > 32 µg/mL
- Anti-bacterial activity (MIC), strain EFA 15-6 ([1]; clinical isolate EFA 15-6): > 32 µg/mL
- Anti-bacterial activity (MIC), strain EFA 15-9 ([1]; clinical isolate EFA 15-9): 4 µg/mL
- Anti-bacterial activity (MIC), strain ECO+ 15-1 ([2]; clinical isolate ECO+ 15-1): 16 µg/mL
- Anti-bacterial activity (MIC), strain ECO+ 15-2 ([2]; clinical isolate ECO+ 15-2): 32 µg/mL
- Anti-bacterial activity (MIC), strain ECO+ 15-3 ([2]; clinical isolate ECO+ 15-3): 16 µg/mL
- Anti-bacterial activity (MIC), strain ECO+ 15-4 ([2]; clinical isolate ECO+ 15-4): 16 µg/mL
- Anti-bacterial activity (MIC), strain ECO− 15-1 ([2]; clinical isolate ECO− 15-1): 16 µg/mL
- Anti-bacterial activity (MIC), strain ECO− 15-2 ([2]; clinical isolate ECO− 15-2): 16 µg/mL
- Anti-bacterial activity (MIC), strain ECO− 15-3 ([2]; clinical isolate ECO− 15-3): 32 µg/mL
- Anti-bacterial activity (MIC), strain ECO− 15-4 ([2]; clinical isolate ECO− 15-4): 16 µg/mL
- Anti-bacterial activity (MIC), strain BCA 14-1 ([3]; clinical isolate BCA 14-1): 2 µg/mL
- Anti-bacterial activity (MIC), strain BCA 14-4 ([3]; clinical isolate BCA 14-4): 2 µg/mL
- Anti-bacterial activity (MIC), strain BCA 14-5 ([3]; clinical isolate BCA 14-5): 0.25 µg/mL
- Anti-bacterial activity (MIC), strain BCA 14-6 ([3]; clinical isolate BCA 14-6): 0.25 µg/mL
- Anti-bacterial activity (MIC), strain BCA 14-7 ([3]; clinical isolate BCA 14-7): 4 µg/mL
- Anti-bacterial activity (MIC), strain BCA 14-8 ([3]; clinical isolate BCA 14-8): 0.5 µg/mL
- Anti-bacterial activity (MIC), strain BCA 14-10 ([3]; clinical isolate BCA 14-10): 0.5 µg/mL
- Anti-bacterial activity (MIC), strain MSSE 15-3 ([4]; clinical isolate MSSE 15-3): 0.125 µg/mL
- Anti-bacterial activity (MIC), strain MSSE 15-4 ([4]; clinical isolate MSSE 15-4): 0.25 µg/mL
- Anti-bacterial activity (MIC), strain MSSE 15-5 ([4]; clinical isolate MSSE 15-5): 0.25 µg/mL
- Anti-bacterial activity (MIC), strain MSSE 15-6 ([4]; clinical isolate MSSE 15-6): 0.125 µg/mL
- Anti-bacterial activity (MIC), strain MSSA 15-3 ([5]; clinical isolate MSSA 15-3): 0.25 µg/mL
- Anti-bacterial activity (MIC), strain MSSA 15-4 ([5]; clinical isolate MSSA 15-4): 0.125 µg/mL
- Anti-bacterial activity (MIC), strain MSSA 15-5 ([5]; clinical isolate MSSA 15-5): 0.125 µg/mL
- Anti-bacterial activity (MIC), strain MSSA 15-6 ([5]; clinical isolate MSSA 15-6): 16 µg/mL
- Anti-bacterial activity (MIC), strain MRSA 15-1 ([6]; clinical isolate MRSA 15-1): 0.125 µg/mL
- Anti-bacterial activity (MIC), strain MRSA 15-2 ([6]; clinical isolate MRSA 15-2): 0.25 µg/mL
- Anti-bacterial activity (MIC), strain MRSA 15-3 ([6]; clinical isolate MRSA 15-3): 0.125 µg/mL
- Anti-bacterial activity (MIC), strain MRSA 15-4 ([6]; clinical isolate MRSA 15-4): 0.25 µg/mL
- Anti-bacterial activity (MIC), strain SPN 16-2 ([7]; clinical isolate SPN 16-2): 0.5 µg/mL
- Anti-bacterial activity (MIC), strain SPN 16-4 ([7]; clinical isolate SPN 16-4): 0.5 µg/mL
- Anti-bacterial activity (MIC), strain EFM 15-1 ([8]; clinical isolate EFM 15-1): > 32 µg/mL
- Anti-bacterial activity (MIC), strain EFM 15-2 ([8]; clinical isolate EFM 15-2): > 32 µg/mL
- Anti-bacterial activity (MIC), strain EFM 15-3 ([8]; clinical isolate EFM 15-3): > 32 µg/mL
- Anti-bacterial activity (MIC), strain EFM 15-4 ([8]; clinical isolate EFM 15-4): 0.5 µg/mL
- Anti-bacterial activity (MIC), strain EFM 15-5 ([8]; clinical isolate EFM 15-5): 0.25 µg/mL
- Anti-bacterial activity (MIC), strain EFM 15-6 ([8]; clinical isolate EFM 15-6): 0.25 µg/mL
- Anti-bacterial activity (MIC), strain MRSE 15-1 ([9]; clinical isolate MRSE 15-1): 0.25 µg/mL
- Anti-bacterial activity (MIC), strain MRSE 15-2 ([9]; clinical isolate MRSE 15-2): 0.25 µg/mL
- Anti-bacterial activity (MIC), strain MRSE 15-3 ([9]; clinical isolate MRSE 15-3): 0.25 µg/mL
- Anti-bacterial activity (MIC), strain MRSE 15-7 ([9]; clinical isolate MRSE 15-7): 0.25 µg/mL
- inhibition at 30 µM ([10]; Homo sapiens, A549, 72 h): > 50%
- Inhibition of proliferation, Lung cancer A549 ([10]; 72 hours, 30 µM): 63%
- Inhibition of proliferation, Liver cancer BEL-7402 [11]: 74%
- inhibition at 30 µM ([12]; Homo sapiens, MGC-803, 72 h): > 50%
- Inhibition of proliferation, Gastric cancer MGC-803 ([12]; 72 hours, 30 µM): 58%
- inhibition at 30 µM ([13]; Homo sapiens, HCT-116, 72 h, read-out: HCT116 inhibition rate/%): > 50%
- HCT116 inhibition rate/% ([13]; 30 µM): 68%

Source: US10738028B2, “Spiro three-membered ring, spiro five-membered ring peptide deformylase inhibitor and use thereof in antibacteria and anti-tumor” (priority 2016, dated 2020)
